Data published in patent US20170107179A1 (Tetraphase Pharmaceuticals, Inc., priority 2010, published 2017).
In brackets after ≈: the same amount, converted by molar mass. Read-outs that look alike come from different tables or passages of the source.

How the values were obtained:
[1] = system: H. influenzae HI551; assay: Rat lung infection model; type: in vivo; details: H. influenzae intratracheal, 50 mg/kg orally at 5, 24, 48 hours
[2] = system: evaluated pathogens by tetracycline phenotype; assay: Broth microdilution MIC by tetracycline phenotype (Table 14)
[3] = system: S. maltophila; assay: Broth microdilution MIC by tetracycline resistance phenotype (Table 10); type: cell-based; set-up: unit not given beside the values
[4] = system: E. coli DH10B EC971 LacZ; assay: MIC, E. coli DH10B recombinantly expressing control gene
[5] = system: Legionella pneumophila, 70 isolates, serogroups 1-6; assay: microbe, parasite or virus in culture; type: cell-based
[6] = system: E. coli DH10B EC1082 TetA; assay: MIC, E. coli DH10B recombinantly expressing tetracycline-resistance gene; details: arabinose-induced, ampicillin in medium
[7] = system: E. coli DH10B EC969 TetM; assay: as above; details: arabinose-induced, ampicillin in medium
[8] = system: Gram-negative and Gram-positive organisms (clinical isolates); assay: Broth microdilution MIC against clinical isolates (CLSI M7-A8), Table 9; type: cell-based
[9] = system: Viridans group streptococci; assay: Broth microdilution MIC by tetracycline resistance phenotype (Table 10); type: cell-based; set-up: unit not given beside the values
[10] = system: E. coli DH10B EC1153 Tet(X); assay: MIC, E. coli DH10B recombinantly expressing tetracycline-resistance gene; details: arabinose-induced, ampicillin in medium
[11] = system: E. coli DH10B EC1083 TetB; assay: as above; details: arabinose-induced, ampicillin in medium
[12] = system: E. coli DH10B EC970 TetK; assay: as above; details: arabinose-induced, ampicillin in medium
[13] = Streptococcus pneumoniae, S. pneumoniae, TET NS, N=46
[14] = Enterococcus faecium, E. faecium, TET NS, N=40
[15] = Enterococcus faecium, E. faecium, TET S, N=60
[16] = Streptococcus agalactiae, S. agalactiae, TET NS, N=39
[17] = Streptococcus agalactiae, S. agalactiae, TET S, N=11
[18] = Streptococcus pneumoniae, S. pneumoniae, TET S, N=54
[19] = Streptococcus pyogenes, S. pyogenes, TET S, N=44
[20] = Klebsiella aerogenes, Enterobacter aerogenes, n=30
[21] = Klebsiella pneumoniae, Klebsiella pneumonia, n=27
[22] = Stenotrophomonas maltophilia, n=29
[23] = Streptococcus intermedius, n=30

In the case of `CC[C@H]1OC(=O)[C@H](C)[C@@H](O[C@H]2C[C@@](C)(OC)[C@@H](O)[C@H](C)O2)[C@H](C)[C@@H](O[C@@H]2O[C@H](C)C[C@H](N(C)C)[C@H]2O)[C@](C)(O)C[C@@H](C)CN(C)[C@H](C)[C@@H](O)[C@]1(C)O` [Azithromycin, azithromycin, reference compound], the “reduction in lung CFU, oral comparator” value [1] was 6.24±0.03 log10.

Compound `CN(C)[C@@H]1C(O)=C(C(N)=O)C(=O)[C@@]2(O)C(O)=C3C(=O)c4c(O)cccc4[C@@](C)(O)[C@H]3C[C@@H]12` [Tetracycline, tetracycline] has an MIC90 ([2]; F. faecalis, TET S, N=30) of 500 µg/mL (≈ 1130 µM), an MIC50 [2, 13] of 16000 µg/mL (≈ 36000 µM) and an MIC50 ([3]; TET NS, n=19) of over 8. The MIC90 ([3]; TET NS, n=19) was over 8, the MIC50 ([3]; TET S, n=10) was 4 and the MIC90 ([3]; TET S, n=10) was 4. The “MIC EC971 LacZ” value [4] was 2, the MIC50 [5] was 4 µg/mL (≈ 9 µM) and the MIC90 [5] was 8 µg/mL (≈ 18 µM). For the same compound, the “MIC EC1082 TetA” value [6] was over 128, the “MIC EC969 TetM” value [7] was 64 and the MIC50 [8] was 0.25 µg/mL (≈ 0.563 µM). For the same compound, the MIC90 [8] was over 8 µg/mL, the MIC50 ([8]; Acinetobacter lwoffii) was 0.5 µg/mL (≈ 1.13 µM) and the MIC90 ([8]; Acinetobacter lwoffii) was 4 µg/mL (≈ 9 µM). It also gave an MIC50 ([8]; Enterobacter cloacae) of 4 µg/mL (≈ 9 µM), an MIC90 ([8]; Enterobacter cloacae) of over 8 µg/mL and an MIC50 ([8]; Escherichia coli) of over 8 µg/mL. For the same compound, the MIC90 ([8]; Escherichia coli) was over 8 µg/mL, the MIC50 ([8]; Klebsiella aerogenes) was 1 µg/mL (≈ 2.25 µM) and the MIC90 ([8]; Klebsiella aerogenes) was 2 µg/mL (≈ 4.5 µM). The MIC50 ([8]; Klebsiella pneumoniae) was 8 µg/mL (≈ 18 µM), the MIC90 ([8]; Klebsiella pneumoniae) was over 8 µg/mL and the MIC50 ([8]; Morganella morganii) was 2 µg/mL (≈ 4.5 µM). The MIC90 ([8]; Morganella morganii) was over 8 µg/mL, the MIC50 ([8]; Proteus vulgaris) was 8 µg/mL (≈ 18 µM) and the MIC90 ([8]; Proteus vulgaris) was over 8 µg/mL. The MIC50 ([8]; Serratia marcescens) was over 8 µg/mL, the MIC90 ([8]; Serratia marcescens) was over 8 µg/mL and the MIC50 ([8]; Staphylococcus aureus) was 0.25 µg/mL (≈ 0.563 µM). The MIC50 ([8]; Stenotrophomonas maltophilia) was 8 µg/mL (≈ 18 µM), the MIC90 ([8]; Stenotrophomonas maltophilia) was over 8 µg/mL and the MIC50 ([8]; Streptococcus anginosus) was 0.12 µg/mL (≈ 0.27 µM). For the same compound, the MIC90 ([8]; Streptococcus anginosus) was over 4 µg/mL, the MIC50 ([8]; Streptococcus intermedius) was 0.25 µg/mL (≈ 0.563 µM) and the MIC90 ([8]; Streptococcus intermedius) was over 4 µg/mL. It also gave an MIC50 ([8]; Streptococcus mitis) of 0.5 µg/mL (≈ 1.13 µM), an MIC90 ([8]; Streptococcus mitis) of over 4 µg/mL and an MIC50 ([9]; TET NS, n=32) of over 4. For the same compound, the MIC90 ([9]; TET NS, n=32) was over 4, the MIC50 ([9]; TET S, n=65) was 0.25 and the MIC90 ([9]; TET S, n=65) was 0.5. For the same compound, the “MIC EC1153 Tet(X)” value [10] was over 32, the “MIC EC1083 TetB” value [11] was over 128 and the “MIC EC970 TetK” value [12] was 64.

`CN(C)c1cc(NC(=O)CNC(C)(C)C)c(O)c2c1C[C@H]1C[C@H]3[C@H](N(C)C)C(O)=C(C(N)=O)C(=O)[C@@]3(O)C(O)=C1C2=O` [Tigecycline, tigecycline] gave an MIC50 [2, 14] of 0.06 µg/mL (≈ 0.102 µM), an MIC90 [2, 14] of 0.12 µg/mL (≈ 0.205 µM) and an MIC50 [2, 15] of 0.06 µg/mL (≈ 0.102 µM). It also gave an MIC90 [2, 15] of 0.06 µg/mL (≈ 0.102 µM), an MIC50 ([2]; F. faecalis, TET NS, N=71) of 0.12 µg/mL (≈ 0.205 µM) and an MIC90 ([2]; F. faecalis, TET NS, N=71) of 0.12 µg/mL (≈ 0.205 µM). It also gave an MIC50 ([2]; F. faecalis, TET S, N=30) of 0.06 µg/mL (≈ 0.102 µM), an MIC90 ([2]; F. faecalis, TET S, N=30) of 0.12 µg/mL (≈ 0.205 µM) and an MIC50 [2, 16] of 0.12 µg/mL (≈ 0.205 µM). The MIC90 [2, 16] was 0.12 µg/mL (≈ 0.205 µM), the MIC50 [2, 17] was 0.12 µg/mL (≈ 0.205 µM) and the MIC90 [2, 17] was 0.12 µg/mL (≈ 0.205 µM). For the same compound, the MIC50 [2, 13] was 0.06 µg/mL (≈ 0.102 µM), the MIC90 [2, 13] was 0.06 µg/mL (≈ 0.102 µM) and the MIC50 [2, 18] was 0.06 µg/mL (≈ 0.102 µM). The MIC90 [2, 18] was 0.06 µg/mL (≈ 0.102 µM), the MIC50 ([2]; Streptococcus pyogenes, S. pyogenes, TET NS, N=6) was 0.06 µg/mL (≈ 0.102 µM) and the MIC50 [2, 19] was 0.06 µg/mL (≈ 0.102 µM). For the same compound, the MIC90 [2, 19] was 0.06 µg/mL (≈ 0.102 µM), the “MIC EC971 LacZ” value ([4]; E. coli DH10B, arabinose-induced, ampicillin in medium) was 0.0625 and the “MIC EC1082 TetA” value [6] was 1. For the same compound, the “MIC EC969 TetM” value [7] was 0.125, the MIC50 ([8]; Acinetobacter lwoffii, n=29) was 0.12 µg/mL (≈ 0.205 µM) and the MIC90 ([8]; Acinetobacter lwoffii, n=29) was 0.5 µg/mL (≈ 0.854 µM). It also gave an MIC50 ([8]; Enterobacter cloacae, n=29) of 1 µg/mL (≈ 1.71 µM), an MIC90 ([8]; Enterobacter cloacae, n=29) of 4 µg/mL (≈ 6.83 µM) and an MIC50 ([8]; Escherichia coli, n=40) of 0.5 µg/mL (≈ 0.854 µM). It also gave an MIC90 ([8]; Escherichia coli, n=40) of 2 µg/mL (≈ 3.41 µM), an MIC50 ([8]; Kiebsielia oxytoca, n=30) of 0.5 µg/mL (≈ 0.854 µM) and an MIC90 ([8]; Kiebsielia oxytoca, n=30) of 2 µg/mL (≈ 3.41 µM). The MIC50 [8, 20] was 0.5 µg/mL (≈ 0.854 µM), the MIC90 [8, 20] was 0.5 µg/mL (≈ 0.854 µM) and the MIC50 [8, 21] was 2 µg/mL (≈ 3.41 µM). For the same compound, the MIC90 [8, 21] was 4 µg/mL (≈ 6.83 µM), the MIC50 ([8]; Morganella morganii, n=30) was 2 µg/mL (≈ 3.41 µM) and the MIC90 ([8]; Morganella morganii, n=30) was 4 µg/mL (≈ 6.83 µM). The MIC50 ([8]; Proteus vulgaris, n=29) was 2 µg/mL (≈ 3.41 µM), the MIC90 ([8]; Proteus vulgaris, n=29) was 4 µg/mL (≈ 6.83 µM) and the MIC50 ([8]; Salmonella species, n=30) was 0.25 µg/mL (≈ 0.427 µM). The MIC90 ([8]; Salmonella species, n=30) was 0.5 µg/mL (≈ 0.854 µM), the MIC50 ([8]; Serratia marcescens, n=30) was 1 µg/mL (≈ 1.71 µM) and the MIC90 ([8]; Serratia marcescens, n=30) was 2 µg/mL (≈ 3.41 µM). The MIC50 ([8]; Staphylococcus aureus, Staphylococcus aureus (MRSA PVL+), n=30, read-out: MIC50) was 0.12 µg/mL (≈ 0.205 µM), the MIC90 ([8]; Staphylococcus aureus, Staphylococcus aureus (MRSA PVL+), n=30, read-out: MIC90) was 0.12 µg/mL (≈ 0.205 µM) and the MIC50 ([8]; Staphylococcus aureus, Staphylococcus aureus MRSA (includes MRSA PVL+ group), n=105, read-out: MIC50) was 0.13 µg/mL (≈ 0.222 µM). The MIC90 ([8]; Staphylococcus aureus, Staphylococcus aureus MRSA (includes MRSA PVL+ group), n=105, read-out: MIC90) was 0.25 µg/mL (≈ 0.427 µM), the MIC50 [8, 22] was 0.5 µg/mL (≈ 0.854 µM) and the MIC90 [8, 22] was 2 µg/mL (≈ 3.41 µM). For the same compound, the MIC50 ([8]; Streptococcus anginosus, n=20) was 0.03 µg/mL (≈ 0.0512 µM), the MIC90 ([8]; Streptococcus anginosus, n=20) was 0.06 µg/mL (≈ 0.102 µM) and the MIC50 [8, 23] was 0.03 µg/mL (≈ 0.0512 µM). The MIC90 [8, 23] was 0.12 µg/mL (≈ 0.205 µM), the MIC50 ([8]; Streptococcus mitis, n=29) was 0.03 µg/mL (≈ 0.0512 µM) and the MIC90 ([8]; Streptococcus mitis, n=29) was 0.12 µg/mL (≈ 0.205 µM). It also gave an MIC50 ([8]; Streptococcus sanguis, n=18) of 0.03 µg/mL (≈ 0.0512 µM), an MIC90 ([8]; Streptococcus sanguis, n=18) of 0.06 µg/mL (≈ 0.102 µM) and an MIC50 ([9]; TET NS, n=32) of 0.03. The MIC90 ([9]; TET NS, n=32) was 0.12, the MIC50 ([9]; TET S, n=65) was 0.03 and the MIC90 ([9]; TET S, n=65) was 0.06. For the same compound, the “MIC EC1153 Tet(X)” value [10] was 2, the “MIC EC1083 TetB” value [11] was 0.0625 and the “MIC EC970 TetK” value [12] was 0.0625.
